Test systems include 786-0; HOP-92; K562; M19-MEL; Malme-3M; NCI-H23; OVCAR-5; SF-268; SK-OV-3; SR; U-251; A549; EKVX; OVCAR-8; SF-295; UACC-257; Hs-578T; PC-3; T47D.
What all share (experiment): DTP human tumour cell line panel, 48 h

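Where inhibition never reached the appropriate level, the endpoint shown equals the highest concentration tested. Otherwise, values were interpolated linearly from a five-concentration, 48-hour dose response in 96-well plates. Here, GI50 denotes the concentration required for 50% inhibition of growth.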 Calls of active or inactive are those of the source. No stated cut-off is given here; in the data, active = GI50 up to about 1.1 µM and inactive = higher.

The record followed here is ChEMBL document CHEMBL1201862, “PubChem BioAssay data set” (2004).

What is called GI50 is the concentration giving 50% growth inhibition.

Consider `CC1=CC(=O)c2c(C=O)c(O)c(O)c(C(C)C)c2C1=O`, for which the GI50 in the experiment on 786-0 was 19.8 µM (inactive); in the experiment with HOP-92, 20.9 µM (inactive); in the experiment with K562, 26.1 µM (inactive); with M19-MEL, 37.9 µM (inactive); in the experiment on Malme-3M, 22.9 µM (inactive); in the experiment on NCI-H23 it was 28.8 µM (inactive). Besides, the GI50 in the experiment on OVCAR-5 was 35.5 µM (inactive); with SF-268, 20.9 µM (inactive); in the experiment with SK-OV-3, 34.5 µM (inactive); in the experiment on SR, 22.8 µM (inactive); in the experiment with U-251 it was 19.8 µM (inactive).

As for `COc1c(O)c2c3c(cc(C)cc3c1C(C)C)OC2`, the GI50 in the experiment on 786-0, with A549, in the experiment with EKVX, with HOP-92, with K562 and with M19-MEL was > 100 µM (inactive) throughout. Also, the GI50 in the experiment with Malme-3M, in the experiment with NCI-H23, in the experiment with OVCAR-5, with OVCAR-8, in the experiment on SF-268 and in the experiment on SF-295 was > 100 µM (inactive) throughout. In addition, the GI50 in the experiment on SK-OV-3, with SR, in the experiment on U-251 and in the experiment on UACC-257 was > 100 µM (inactive) each time.

For `CC(=O)OCc1cc2c(s1)C(=O)c1sccc1C2=O`, the GI50 in the experiment with 786-0 is 0.619 µM (active); with A549 it was 0.181 µM (active); in the experiment on EKVX, 0.197 µM (active); with HOP-92 it was 0.528 µM (active); in the experiment on Hs-578T, 0.157 µM (active); with K562, 0.277 µM (active). The 50% growth inhibitory concentration (GI50) in the experiment with M19-MEL is < 0.01 µM (active); with Malme-3M it was 0.272 µM (active); with NCI-H23, 0.018 µM (active); in the experiment with OVCAR-5, 0.19 µM (active); in the experiment with OVCAR-8, 0.183 µM (active); in the experiment with PC-3, 0.194 µM (active). Besides, the GI50 in the experiment with SF-268 is 0.154 µM (active); with SF-295, 0.0541 µM (active); in the experiment on SK-OV-3, 1.72 µM (inactive); with SR it was 1.89 µM (inactive); in the experiment with T47D it was 0.309 µM (active); in the experiment with U-251, 0.248 µM (active). Also, the GI50 in the experiment with UACC-257 was 0.0986 µM (active).

As for `CC(=O)Oc1c(C)c(-c2ccccc2)c(C)c(-c2ccccc2)c1C(=S)c1ccccc1`, the GI50 with 786-0, in the experiment on A549, in the experiment with EKVX, in the experiment with HOP-92, with K562 and in the experiment with M19-MEL was > 100 µM (inactive) in each case. In addition, the GI50 in the experiment on Malme-3M, with NCI-H23, in the experiment on OVCAR-5, in the experiment on OVCAR-8, in the experiment on SF-268 and in the experiment on SF-295 was > 100 µM (inactive) each time. The GI50 in the experiment on SK-OV-3 is > 100 µM (inactive); in the experiment with SR, 41.9 µM (inactive); with U-251, > 100 µM (inactive); in the experiment with UACC-257 it was > 100 µM (inactive).

For the compound `COc1cc2c(c(OC)c1OC)-c1ccc(SC)c(=O)cc1C(CC(=O)Oc1ccc(F)cc1)C2` (configuration not stated), the GI50 in the experiment on 786-0 was 0.0625 µM (active); with A549 it was 0.134 µM (active); in the experiment on EKVX it was 5.04 µM (inactive); with HOP-92, 1.21 µM (inactive); with K562 it was 0.15 µM (active); with M19-MEL it was 0.236 µM (active). The GI50 in the experiment on Malme-3M is 0.392 µM (active); with NCI-H23, 0.215 µM (active); in the experiment on OVCAR-5, 39.1 µM (inactive); in the experiment on OVCAR-8, 0.333 µM (active); with SF-268, 0.622 µM (active); with SF-295, 0.0359 µM (active). Also, the GI50 is 0.028 µM (active) in the experiment with SK-OV-3, 0.0466 µM (active) with SR, 0.159 µM (active) in the experiment with U-251 and 38.9 µM (inactive) in the experiment with UACC-257.

`COc1cc2c(cc1OC)[Se]c1cc(OC)c(OC)cc1[Se]2`: the GI50 in the experiment on 786-0 is > 10 µM (inactive); in the experiment with A549 it was > 10 µM (inactive); in the experiment on EKVX, > 10 µM (inactive); with HOP-92, 69 µM (inactive); in the experiment with K562, 6.64 µM (inactive); in the experiment on M19-MEL it was > 10 µM (inactive). The GI50 with Malme-3M was > 10 µM (inactive); with NCI-H23, > 10 µM (inactive); in the experiment with OVCAR-5, > 10 µM (inactive); in the experiment on OVCAR-8, > 10 µM (inactive); with SF-268, > 10 µM (inactive); in the experiment with SF-295, 18.3 µM (inactive). Further, the GI50 in the experiment with SK-OV-3 is > 10 µM (inactive); with SR, 4.74 µM (inactive); in the experiment on U-251, > 10 µM (inactive); in the experiment with UACC-257, > 10 µM (inactive).

On to `CC1=C(O)C(=O)C2C(=O)C1C1Cc3ccccc3C21` (configuration not stated), for which the GI50 in the experiment on 786-0, in the experiment with A549, with EKVX, with HOP-92, with K562 and in the experiment on M19-MEL was > 100 µM (inactive) in each case. The GI50 in the experiment with Malme-3M, in the experiment on NCI-H23, with OVCAR-5, in the experiment on OVCAR-8, in the experiment with SF-268 and in the experiment on SF-295 was > 100 µM (inactive) throughout. Further, the GI50 in the experiment on SK-OV-3, with SR and in the experiment on U-251 was > 100 µM (inactive) each time.

For the compound `O=C(O)c1c(-c2cccc3ccccc23)sc(-c2cccc3ccccc23)c1C(=O)O`, the GI50 in the experiment with 786-0 is > 100 µM (inactive); in the experiment on A549 it was > 100 µM (inactive); in the experiment on EKVX, 90.8 µM (inactive); with HOP-92, > 100 µM (inactive); in the experiment on K562, 90.8 µM (inactive); with M19-MEL, > 100 µM (inactive). Further, the GI50 in the experiment on Malme-3M, in the experiment with NCI-H23, with OVCAR-5, with OVCAR-8, in the experiment with SF-268 and in the experiment on SF-295 was > 100 µM (inactive) each time. In addition, the GI50 in the experiment on SK-OV-3 was > 100 µM (inactive); in the experiment on SR, 47.9 µM (inactive); in the experiment with U-251, > 100 µM (inactive); with UACC-257 it was > 100 µM (inactive).

Regarding `O=C1CC(c2ccccc2)NCN1` (configuration not stated), the GI50 in the experiment with 786-0, in the experiment with A549, in the experiment on EKVX, in the experiment on K562, with M19-MEL and in the experiment with Malme-3M was > 100 µM (inactive) each time. For the same compound, the GI50 in the experiment with NCI-H23, with OVCAR-5, in the experiment on OVCAR-8, in the experiment with SF-268, with SF-295 and in the experiment on SK-OV-3 was > 100 µM (inactive) in each case. The GI50 with SR, in the experiment on U-251 and in the experiment with UACC-257 was > 100 µM (inactive) each time.

Turning to `CCc1cc(CCC(=O)Nc2c(C)cccc2C)n[nH]1`, the GI50 with 786-0, in the experiment on A549, in the experiment on EKVX, in the experiment with HOP-92, in the experiment on K562 and with M19-MEL was > 100 µM (inactive) throughout. Further, the GI50 in the experiment on Malme-3M, in the experiment with NCI-H23, in the experiment with OVCAR-5, with OVCAR-8, in the experiment with SF-268 and in the experiment on SF-295 was > 100 µM (inactive) in each case. For the same compound, the GI50 in the experiment with SK-OV-3, with SR, in the experiment on U-251 and with UACC-257 was > 100 µM (inactive) each time.

For `O=C1[C@H](Cl)[C@H]2c3cc4ccccc4nc3Oc3ccccc3N12`, the GI50 with 786-0 was 36.8 µM (inactive); in the experiment on A549, 33.5 µM (inactive); in the experiment with EKVX it was 81.8 µM (inactive); in the experiment with K562, > 10 µM (inactive); in the experiment with M19-MEL, 34.8 µM (inactive); in the experiment with Malme-3M, 49.4 µM (inactive). Besides, the GI50 in the experiment on NCI-H23 was 35.1 µM (inactive); in the experiment with OVCAR-5, 67.3 µM (inactive); in the experiment with OVCAR-8, 51.3 µM (inactive); in the experiment on SF-268, 25.8 µM (inactive); in the experiment on SF-295, 21.8 µM (inactive); in the experiment on SK-OV-3, 45.5 µM (inactive). The GI50 with SR was 20.9 µM (inactive); with U-251 it was 30.9 µM (inactive); in the experiment with UACC-257 it was 50.4 µM (inactive).

As to `O=C(O)c1c2c(c(C(=O)O)c3ccccc13)-c1ccccc1-2`, the GI50 with 786-0 was 36.8 µM (inactive); in the experiment with A549 it was 36 µM (inactive); with EKVX, 31.4 µM (inactive); with HOP-92, 23.3 µM (inactive); in the experiment on K562, 33.6 µM (inactive); with M19-MEL it was 69 µM (inactive). For the same compound, the GI50 in the experiment with Malme-3M was 31 µM (inactive); with NCI-H23, 39.8 µM (inactive); in the experiment on OVCAR-5, > 100 µM (inactive); in the experiment with OVCAR-8, 39.9 µM (inactive); in the experiment on SF-268 it was 31.9 µM (inactive); with SF-295 it was 33.6 µM (inactive). In addition, the GI50 with SK-OV-3 was 27.8 µM (inactive); in the experiment with SR, 55.6 µM (inactive); with U-251, 35.6 µM (inactive); in the experiment with UACC-257, 47.5 µM (inactive).
